From US20160109352A1, “METHODS AND APPARATUS FOR HIGH-THROUGHPUT LABEL-FREE CELL ASSAY” (INDUSTRY-ACADEMIC COOPERATION FOUNDATION YONSEI UNIVERSITY, priority 2014, published 2016)

Tested on: cells
Assay: label-free cell assay by optical interference phase microscope
Type: cell-based
Conditions: for change in measurement values (phase) depending on concentration, by time: dosed in different concentration, measured by time (FIG. 5)
From the text: FIG. 4 is a view showing an example of an image of cells photographed by an optical interference phase microscope beneath the transparent medium of the high-throughput label-free cell assay system.
FIG. 5 is a view showing an example of a measurement value by time in the high-throughput label-free cell assay system in a case that picolinic acid and histamine are separately given to cells in different concentration.

SMILES	change in measurement values (phase) depending on concentration, by time	number of observed cells in optical interference phase image (half an hour after dosing, untreated cells showed no change after 30 minutes)
NCCc1c[nH]cn1 [histamine]	remarkable changes in measurement values depending on concentration were observed	
O=C(O)c1ccccn1 [picolinic acid]	remarkable changes in measurement values depending on concentration were observed	remarkably reduced
